What is called CC50 is the concentration at which the toxic effect on the cells reaches its halfway point. Usually Kd stands for the equilibrium constant for the complex coming apart. Read a high Kd as lower affinity.

Where a SMILES comes first, the peptide text is derived from it. [ ]: non-standard residue; d: D form. The star is where a group is joined. ξ: configuration not given here. Succinyl(4-O-cholesteryl) = CC(C)CCC[C@@H](C)[C@H]1CC[C@H]2[C@@H]3CC=C4C[C@@H](OC(=O)CCC(=O)*)CC[C@]4(C)[C@H]3CC[C@]12C; ξD = NC(CC(=O)O)C(=O)O

Results on four molecules are retold here after US20260250325A1, “Antiviral Polypeptide Membrane Fusion Inhibitor, and Preparation Method and Application Thereof” (priority 2025, published 2026).

Data set [1] is described as follows: Cytotoxicity test in HEp-2 cells (CCK8 cell viability). It counts as cell-based. The settings on record: human; HEp-2 cells, CCK8, 1 day; read-out: CC50. The method, boiled down:
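HEp-2 cells seeded at 30,000/well, cultured overnight at 37° C./5% CO2, then exposed to diluted compound for 1 day in 0.5% DMSO. Viability read by CCK8, normalised to untreated-cell and medium-only controls; CC50 from four-parameter variable-slope fit.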

Data set [2] relates to RSV A2 virus strain. Description: Mouse RSV A2 challenge protection, lung viral titer by plaque method. Format: in vivo, BALB/c mice. The settings on record: for Mean (PFU/g lung): BALB/c mice, tracheal nebulization 1 mg/kg QD for 5 days, lung collected 2 h after final administration on Day 4; for effect on viral titer in lung tissue (in words): mice, tracheal nebulization once daily for 5 days. As to the method: Female BALB/c mice were from Shanghai Yishang Biotechnology Co., Ltd. HEp- 2 were from the ATCC, with a catalog number CCL-23. The cells were cultured in a DMEM medium solution in which 10% (v/v) fetal bovine serum and 1% penicillin and streptomycin were added. The RSV A2 virus strain was from the ATCC, with a catalog number VR-1540.
Eight-week-old female BALB/c mice were grouped based on body weight (n=6). All animals were intranasally challenged with RSV on Day 0 at a challenge dosage of 1×10^6 pfu (20 μL) per animal. Administration began 1 h after Day 0 challenge; the polypeptide sample, positive control, and solvent control were administered via tracheal nebulization once daily for 5 consecutive days (see Table 3 below for administration dosage and administration frequency). Lung tissue was collected from all animals 2 h after the final administration on Day 4; left lung tissue was rapidly frozen in a virus protection solution with a 10-fold volume and stored below −70° C.; and a viral titer was detected by using a plaque method.
For analysis, the lung RSV A2 virus was determined by performing a tissue homogenate viral load plaque method. In short, on the day prior to sample detection, the HEp-2 cells were inoculated into a 12-well plate (spreading density being 0.3×10^6 cells/mL, with 1000 μL of cell suspension per well) according to a standard HEp-2 cell culture operation procedure. On the day of incubation, the supernatant was taken from the tissue sample that was homogenized using a tissue homogenizer (maintaining a low-temperature environment), and the supernatant was taken after centrifugation. The tissue homogenate sample was diluted with serum-free DMEM, and inoculated into a 12-well plate at a final volume of 400 μL. After 2 h of incubation, the homogenate supernatant was discarded, and 1.5 mL of a covering layer (cell culture medium containing 1% soft agar) was added to each well and cultured in the incubator for approximately 72 h. The covering layer was discarded, the cells were fixed, blocking was performed by using a blocking solution, dyeing was performed with HRP-RSVG, development and air drying were terminated with pure water. Colored spots on the well plate were counted by using a fluorescent (enzyme-linked) immunoassay spot analyzer, and the viral titer was expressed as a plaque-forming unit per gram of tissue (PFU/g). The viral titer was calculated as an arithmetic mean±standard error of all animals in a group.
One hour after RSV A2 challenge in mice, compounds 13, 14, 17, 19, 20, 21, 26, 27, 28, and 40 were administered via tracheal nebulization once daily for 5 consecutive days; and 2 h after the final administration, lung tissue was collected from all groups for viral plaque detection, and results were shown in Table 3.

The subject of data set [3] is RSV A2 virus strain. Briefly: Cotton rat RSV A2 challenge protection, lung nucleic acid load by RT-qPCR. As to conditions: cotton rats; for Nucleic acid load RT-qPCR detection results Log10 mean (copy number/gram of lung tissue): tracheal nebulization 1 mg/kg QD for 5 days, lung collected 2 h after final administration on Day 4; for effect on viral titer in lung tissue (in words): tracheal nebulization once daily for 5 days. Format: in vivo. The source says: Female cotton rats were from Shanghai Yishang Biotechnology Co., Ltd. The RSV A2 virus strain was from the ATCC, with a catalog number VR-1540. RT-qPCR primer+probe primer were supplied by Qingke Biotechnology Co., Ltd, with batch number TSP20241227-025-00187. The RT-qPCR standard was provided by Vazyme, with batch number 20241008.
Female cotton rats (6-8 weeks old) were grouped based on body weight (n=5). All animals were intranasally challenged with RSV on Day 0 at a challenge dosage of […] pfu (50 μL) per animal. Administration began 1 h after Day 0 challenge; the polypeptide sample, positive control, and solvent control were administered via tracheal nebulization once daily for 5 consecutive days. Lung tissue was collected from all animals 2 h after the final administration on Day 4. Left lung tissue (including partial trachea) was rapidly frozen in a virus protection solution with a 10-fold volume and stored below −70° C.; and the viral titer was detected with RT-qPCR.
First, sample homogenization and lung tissue RNA extraction were performed, and the supernatant was taken from the tissue sample that was homogenized using a tissue homogenizer (maintaining a low-temperature environment). The approximately 100 μL of the homogenate supernatant was taken, and total tissue RNA was extracted by using a VeZol reagent-chloroform-water phase-magnetic bead method, and dissolved in RNase-free water. The RT-qPCR reaction system was prepared as follows: a one-step RT-qPCR reaction system was prepared by using an RNA template, a probe, a primer pair, an RT-qPCR buffer, and the RNase-free water; each sample was tested in duplicated wells, with each well containing 20 μL of the one-step RT-qPCR reaction system; a quantitative standard curve well (RSV A2 N gene full-length plasmid), a positive quality control well, and a negative quality control well were arranged at the same time. Then, amplification programs were set according to reverse transcription, pre-denaturation, and cyclic amplification, and amplification data was collected by using a real-time fluorescence quantification PCR instrument, and a mean CT value for duplicated wells was calculated. The CT value from the test results for each sample was substituted into a quantitative standard curve to calculate a copy number. A calculation formula for RSV viral load (copy number/gram of lung tissue) was: sample viral load (copy number/gram of lung tissue)=copy number/relative tissue input (g).
One hour after RSV A2 challenge in cotton rats, compounds 13, 14, 17, 19, 20, 21, 26, 27, 28, and 40 were administered via tracheal nebulization once daily for 5 consecutive days; and 2 h after the final administration, lung tissue was collected from all groups for viral titer detection, and results were shown in Table 4.

Data set [4] has as its target T1, F protein of RSV A long virus strain (respiratory syncytial virus, RSV A long virus strain), P12568.
T1 chain: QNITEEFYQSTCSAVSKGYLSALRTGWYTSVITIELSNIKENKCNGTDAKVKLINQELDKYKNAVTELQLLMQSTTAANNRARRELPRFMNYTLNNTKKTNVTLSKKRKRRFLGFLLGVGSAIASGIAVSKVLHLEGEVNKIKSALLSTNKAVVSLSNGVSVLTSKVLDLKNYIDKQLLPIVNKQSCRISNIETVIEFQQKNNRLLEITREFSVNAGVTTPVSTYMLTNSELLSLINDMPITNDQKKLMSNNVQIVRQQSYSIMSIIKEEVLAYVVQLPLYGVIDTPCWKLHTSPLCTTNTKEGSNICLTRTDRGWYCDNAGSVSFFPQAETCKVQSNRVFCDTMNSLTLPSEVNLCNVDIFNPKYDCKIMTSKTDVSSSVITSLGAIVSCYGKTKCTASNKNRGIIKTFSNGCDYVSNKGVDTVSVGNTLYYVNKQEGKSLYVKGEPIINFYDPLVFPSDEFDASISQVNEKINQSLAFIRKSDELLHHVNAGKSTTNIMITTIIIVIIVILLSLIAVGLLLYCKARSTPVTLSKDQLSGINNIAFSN
Description: cell-based or functional assay.

Substrate in data set [5]: F protein of hMPV virus strain B1 (human metapneumovirus, strain B1)
Description: cell-based or functional assay.

Substrate in data set [6]: F protein of hMPV virus strain A2 (human metapneumovirus, strain A2)
Description: cell-based or functional assay.

Substrate in data set [7]: F protein of hPIV Type 3 (hPIV3 C243) (human parainfluenza virus type 3, strain C243)
Briefly: cell-based or functional assay.

For data set [8], the target named is hPIV-N51 (139-189) (human parainfluenza virus (hPIV)).
Chain of hPIV-N51 (139-189) (human parainfluenza virus (hPIV)) (P06828 139-189): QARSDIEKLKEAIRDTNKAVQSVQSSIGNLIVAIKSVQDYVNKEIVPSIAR

As for `CC[C@H](C)[C@H](NC(=O)[C@H](CCCCN)NC(=O)[C@H](CCCCN)NC(=O)[C@H](CC(C)C)NC(=O)[C@H](CO)NC(=O)[C@H](CCC(=O)O)NC(=O)[C@H](CCC(=O)O)NC(=O)[C@@H](NC(=O)[C@H](CCCCN)NC(=O)[C@H](CCCCN)NC(=O)[C@H](CC(N)=O)NC(=O)[C@@H](NC(=O)[C@H](CCC(=O)O)NC(=O)[C@H](CCC(=O)O)NC(=O)[C@@H](NC(=O)[C@H](CCCCN)NC(=O)[C@H](CCCCN)NC(=O)[C@H](CC(=O)O)NC(=O)[C@H](Cc1ccccc1)NC(=O)[C@H](CCC(=O)O)NC(=O)C(CC(=O)O)NC(C)=O)[C@@H](C)CC)C(C)C)[C@@H](C)CC)C(=O)N[C@@H](CCC(=O)O)C(=O)N[C@@H](CCC(=O)O)C(=O)N[C@@H](CO)C(=O)N[C@@H](CC(=O)O)C(=O)N[C@@H](CCCCN)C(=O)N[C@@H](CCCCN)C(=O)N[C@@H](CC(C)C)C(=O)N[C@@H](CCC(=O)O)C(=O)N[C@@H](CCC(=O)O)C(=O)N[C@H](C(=O)N[C@@H](CC(N)=O)C(=O)N[C@@H](CCC(=O)O)C(=O)N[C@@H](C)C(=O)N[C@@H](C)C(=O)N[C@@H](C)C(=O)N[C@@H](CCCCN)C(=O)N[C@@H](CCCCNC(=O)CCC(=O)O[C@H]1CC[C@@]2(C)C(=CC[C@H]3[C@@H]4CC[C@H]([C@H](C)CCCC(C)C)[C@@]4(C)CC[C@@H]32)C1)C(N)=O)C(C)C` (some centres unmarked) [Compound 14] (Ac-[ξD]EFDKKIEEVNKKIEESLKKIEESDKKLEEVNEAAAKK(Succinyl(4-O-cholesteryl))-NH2), the CC50 at 1 day in data set [1] stood at 9600 nM. In the data set with RSV A2 virus strain [2], the “Mean (PFU/g lung)” value was determined as 4820 PFU/g lung and the “effect on viral titer in lung tissue (in words)” value (“effect on viral titer” for short) is on record as “significantly reduce the viral titer in lung tissue”. For the same molecule, in the data set with RSV A2 virus strain [3], the “Nucleic acid load RT-qPCR detection results Log10 mean (copy number/gram of lung tissue)” value is recorded as 7.68 Log10 copy number/gram of lung and the “effect on viral titer” value is reported as “significantly reduce the viral titer in lung tissue”.
With `CC[C@H](C)[C@H](NC(=O)[C@H](CCCCN)NC(=O)[C@H](CCCCN)NC(=O)[C@H](CC(C)C)NC(=O)[C@H](CO)NC(=O)[C@H](CCC(=O)O)NC(=O)[C@H](CCC(=O)O)NC(=O)[C@@H](NC(=O)[C@H](CCCCN)NC(=O)[C@H](CCCCN)NC(=O)[C@H](CC(N)=O)NC(=O)[C@@H](NC(=O)[C@H](CCC(=O)O)NC(=O)[C@H](CCC(=O)O)NC(=O)[C@@H](NC(=O)[C@H](CCCCN)NC(=O)[C@H](CCCCN)NC(=O)[C@H](CC(=O)O)NC(=O)[C@H](Cc1ccccc1)NC(=O)[C@H](CCC(=O)O)NC(=O)C(CC(=O)O)NC(C)=O)[C@@H](C)CC)C(C)C)[C@@H](C)CC)C(=O)N[C@@H](CCC(=O)O)C(=O)N[C@@H](CCC(=O)O)C(=O)N[C@@H](CO)C(=O)N[C@@H](CC(=O)O)C(=O)N[C@@H](CCCCN)C(=O)N[C@@H](CCCCN)C(=O)N[C@@H](CC(C)C)C(=O)N[C@@H](CCC(=O)O)C(=O)N[C@@H](C)C(=O)N[C@@H](C)C(=O)N[C@@H](C)C(=O)N[C@@H](CCCCN)C(=O)N[C@@H](CCCCNC(=O)CCC(=O)O[C@H]1CC[C@@]2(C)C(=CC[C@H]3[C@@H]4CC[C@H]([C@H](C)CCCC(C)C)[C@@]4(C)CC[C@@H]32)C1)C(N)=O` (some centres unmarked) [Compound 17] (Ac-[ξD]EFDKKIEEVNKKIEESLKKIEESDKKLEAAAKK(Succinyl(4-O-cholesteryl))-NH2), the CC50 at 1 day in data set [1] was determined as 26400 nM. For the same molecule, in the data set on RSV A2 virus strain [2], the “Mean (PFU/g lung)” value amounted to 7885 PFU/g lung and the “effect on viral titer” value is given as “significantly reduce the viral titer in lung tissue”. For the same molecule, in the data set on RSV A2 virus strain [3], the “Nucleic acid load RT-qPCR detection results Log10 mean (copy number/gram of lung tissue)” value is 8.42 Log10 copy number/gram of lung and the “effect on viral titer” value is listed as “significantly reduce the viral titer in lung tissue”.
FDASIEEVNRRIEESLRRIEESDRRLEEVNAEAAAKK (modifications not checked) [Compound 42]: the IC50/nM, Cell fusion inhibition activity (plaque reduction, RSV A long strain, HEp-2 cells) in data set [4] was found to be 11.8 nM. In data set [5], the EC50 (nM), plaque reduction, hMPV B1, Vero cells is 10.1 nM. Further, the EC50 (nM), plaque reduction, hMPV A2, Vero cells in data set [6] turned out to be 26.1 nM. Also, the EC50 (nM), plaque reduction, hPIV3 C243, LLC-MK2 cells in data set [7] came out at 18.9 nM. Further, the Kd in data set [8] stood at 485 nM.
For the molecule WDEFDASIEEVNRRIEESLRRIEESDRRLEEVEAAAKK (modifications not checked) [Compound 43], in data set [4], the IC50/nM, Cell fusion inhibition activity (plaque reduction, RSV A long strain, HEp-2 cells) is 18.3 nM. Further, the EC50 (nM), plaque reduction, hMPV B1, Vero cells in data set [5] was determined as 8.01 nM. Also, the EC50 (nM), plaque reduction, hMPV A2, Vero cells in data set [6] was determined as 16.8 nM. In addition, the EC50 (nM), plaque reduction, hPIV3 C243, LLC-MK2 cells in data set [7] worked out at 16.1 nM. Also, in data set [8], the dissociation constant (Kd) came out at 5720 nM.
